# Reference: US20160159774A1 (Celgene Avilomics Research, Inc., priority 2014, published 2016)
# Assays:
# [1] = molecular target: T1, activated BTK enzyme (Homo sapiens, UniProt Q06187); assay: Omnia assay for potency assessment against BTK; type: biochemical; conditions: BTK inhibition assay; [BTK]=5 nM, [ATP]=40 μM, [Y5-Sox]=10 μM
# T1 construct: purchased Life Technologies PV3363
# From the text: Omnia Assay Protocol for Potency Assessment Against BTK
# The protocol below describes an assay to measure potency of compounds against the activated BTK enzyme. The mechanics of the assay platform are best described by the vendor (Life Technologies, Carlsbad, Calif.) on their website at the following URLs: www.lifetechnologies.com/us/en/home/life-science/drug-discovery/target-and-lead-identification-and-validation/kinasebiology/kinase-activity-assays/omnia-kinase-assays/omnia-kinase-principle.html and tools.lifetechnologies.com/content/sfs/manuals/omnia_kinase_assay_man.pdf
# Briefly, 10× stocks of BTK (PV3363) from Life Technologies, 1.13×ATP (AS00lA) and Sox conjugated peptide substrates, Y5-Sox, (KZN305l) were prepared in 1× kinase reaction buffer consisting of 20 mM Tris, pH 7.5, 5 mM MgCl2, 1 mM EGTA, 5 mM (3-glycerophosphate, 5% glycerol (10× stock, KB002A) and 0.2 mM DTT (DS00lA). 5 μL of each enzyme were pre-incubated in a Corning (#3574) 384-well, white, non-binding surface microtiter plate (Corning, N.Y.) for 30 min. at room temperature with a 0.5 μL volume of 50% DMSO or serially diluted compounds prepared in 50% DMSO. Kinase reactions were started with the addition of […] of the ATP/Tyr-Sox peptide substrate Y5 mix and monitored every 71 seconds for 60 minutes at λex360/λem485 in a Synergy4 plate reader from BioTek (Winooski, Vt.). At the conclusion of each assay, progress curves from each well were examined for linear reaction kinetics and fit statistics (R2, 95% confidence interval, absolute sum of squares). Initial velocity (0 minutes to ˜30 minutes) from each reaction was determined from the slope of a plot of relative fluorescence units vs time (minutes) and then plotted against inhibitor concentration to estimate IC50 from log [Inhibitor] vs Response, Variable Slope model in GraphPad Prism from GraphPad Software (San Diego, Calif.).
# Reagent conditions for the assay are:
# [BTK]=5 nM, [ATP]=40 μM, [Y5-Sox]=10 μM (ATP KMapp˜36 μM).
# The compound numbers correspond to the compound numbers in the examples.
# [2] = molecular target: T2, BTK in Ramos human Burkitt lymphoma cells (Homo sapiens, UniProt Q06187); assay: BTK Ramos cellular assay (BTK occupancy); type: cell-based; conditions: concentration producing 50% occupancy of BTK, 1 hour incubation with compound
# T2 construct: Compounds of this invention were assayed in Ramos human Burkitt lymphoma cells; endogenous in cells; host or cells: Ramos human Burkitt lymphoma cells
# Description: BTK activity in Ramos cells, in the presence of a compound of the invention, can be measured by 3 different methods: 1) inhibition of autophosphorylation of BTK; 2) inhibition of phosphorylation of the immediate BTK surrogate PLCγ2; and 3) BTK occupancy. […] In this instance, BTK occupancy was chosen and is described below.
# Compounds of this invention were assayed in Ramos human Burkitt lymphoma cells. Ramos cells were grown in suspension in T175 flasks, spun down, resuspended to a concentration of 2×10^6 cells per mL in serum-free media and incubated for 1 hour. Compound was added to Ramos cells to a final concentration of 500, 166.7, 55.6, 18.5, 6.2, 2.1, and 0.7 nM. Ramos cells were incubated with compound for 1 hour, washed with PBS and lysed in 1004 of BioRad lysis Buffer. Cell lysates were incubated with a biotinylated covalent probe (compound 1-215 disclosed in U.S. published application number 2010/0029610, incorporated by reference in its entirety) at a final concentration of 1 μM in a PBS, 0.05% Tween-20, 1% BSA solution for 1 h at room temperature. Standards and samples were transferred to a streptavidin-coated 96-well ELISA plate and mixed while shaking for 1 h at room temperature. The α-Btk antibody (BD 611116, 1:1000 dilution in PBS+0.05% Tween-20+0.5% BSA) was then added and incubated for 1 h at room temperature. After wash, goat α-mouse-HRP (1:5000 dilution in PBS+0.05% Tween-20+0.5% BSA) was added and incubated for 1 h at room temperature. The ELISA was developed with addition of tetramethyl benzidine (TMB) followed by Stop Solution and read at OD 450 nm. The standard curve (11.7-3000 pg/μL) was generated with human full-length recombinant Btk protein and plotted using a 4 parameter curve fit in Gen5 software. Uninhibited Btk detected from samples was normalized to μg total protein as determined by BCA protein analysis (Pierce Cat. 23225).
# The results of this assay show the concentration of compound producing 50% occupancy of BTK. This level of occupancy empirically translates to a level of 50% inhibition of BTK activity (both as measured by autophosphorylation and by phosphorylation of PLCγ2). […] The compound numbers correspond to the compound numbers in the examples.
# T2 sequence (Q06187 whole entry): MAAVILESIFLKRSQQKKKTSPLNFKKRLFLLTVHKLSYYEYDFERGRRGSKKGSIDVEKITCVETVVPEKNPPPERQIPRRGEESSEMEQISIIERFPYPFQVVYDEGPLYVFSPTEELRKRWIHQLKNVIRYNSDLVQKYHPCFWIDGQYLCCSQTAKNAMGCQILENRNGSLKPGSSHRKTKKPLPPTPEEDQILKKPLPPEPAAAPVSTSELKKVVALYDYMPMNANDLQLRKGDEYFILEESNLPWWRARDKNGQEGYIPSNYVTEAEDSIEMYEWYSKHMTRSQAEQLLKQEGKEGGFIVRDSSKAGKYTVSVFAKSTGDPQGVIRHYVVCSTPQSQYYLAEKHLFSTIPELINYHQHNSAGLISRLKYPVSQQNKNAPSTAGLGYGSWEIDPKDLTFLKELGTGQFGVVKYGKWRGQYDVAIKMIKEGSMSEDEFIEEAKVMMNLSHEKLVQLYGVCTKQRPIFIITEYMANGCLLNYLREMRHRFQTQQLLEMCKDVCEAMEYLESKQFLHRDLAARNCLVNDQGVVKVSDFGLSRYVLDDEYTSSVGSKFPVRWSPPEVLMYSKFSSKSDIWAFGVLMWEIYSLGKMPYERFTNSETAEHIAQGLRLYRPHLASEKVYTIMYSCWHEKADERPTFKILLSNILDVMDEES
# T1 sequence (Q06187 whole entry): as above
IC50 [1] [nM],EC50 [2] [nM],Compound
< 10,101 to 1000,"C=CC(=O)N1CCC[C@@H](Nc2nc(Nc3cc(F)c4c(c3)CN(C)C4)ncc2F)C1 [Compound I-37, (R)-1-(3-(5-Fluoro-2-(7-fluoro-2-methylisoindolin-5-ylamino)pyrimidin-4-ylamino)piperidin-1-yl)prop-2-en-1-one]"
< 10,10 to 100,"C=CC(=O)N1CCC[C@@H](Nc2nc(Nc3ccc4c(c3)CCCN(CC3COC3)C4)ncc2F)C1 [Compound I-50, (R)-1-(3-((5-Fluoro-2-((2-(oxetan-3-ylmethyl)-2,3,4,5-tetrahydro-1H-benzo[c]azepin-7-yl)amino)pyrimidin-4-yl)amino)piperidin-1-yl)prop-2-en-1-one]"
< 10,10 to 100,"C=CC(=O)N1CCC[C@@H](Nc2nc(Nc3ccc4c(c3)CCCN(C)C4=O)ncc2F)C1 [Compound I-52, (R)-7-((4-((1-Acryloylpiperidin-3-yl)amino)-5-fluoropyrimidin-2-yl)amino)-2-methyl-2,3,4,5-tetrahydro-1H-benzo[c]azepin-1-one]"
< 10,10 to 100,"C=CC(=O)N1CCC[C@@H](Nc2nc(Nc3ccc4c(c3)CCN(C)C4)ncc2F)C1 [Compound I-28, (R)-1-(3-((5-Fluoro-2-((2-methyl-1,2,3,4-tetrahydroisoquinolin-6-yl)amino)-pyrimidin-4-yl)amino)piperidin-1-yl)prop-2-en-1-one]"
< 10,< 10,"C=CC(=O)N1CCC[C@@H](Nc2nc(Nc3ccc4c(c3)CCN(CC3CC3)C4)ncc2F)C1 [Compound I-43, (R)-1-(3-((2-((2-(cyclopropylmethyl)-1,2,3,4-tetrahydroisoquinolin-6-yl)amino)-5-fluoropyrimidin-4-yl)amino)piperidin-1-yl)prop-2-en-1-one]"
< 10,10 to 100,"C#CCN1Cc2ccc(Nc3ncc(F)c(N[C@@H]4CCCN(C(=O)C=C)C4)n3)cc2C1 [Compound I-67, (R)-1-(3-((5-Fluoro-2-((2-(prop-2-yn-1-yl)isoindolin-5-yl)amino)pyrimidin-4-yl)amino)piperidin-1-yl)prop-2-en-1-one]"
< 10,< 10,"C=CC(=O)N1CCC[C@@H](Nc2nc(Nc3ccc4c(c3)CN(C3CCC3)CC4)ncc2F)C1 [Compound I-46, (R)-1-(3-(2-(2-Cyclobutyl-1,2,3,4-tetrahydroisoquinolin-7-ylamino)-5-fluoropyrimidin-4-ylamino)piperidin-1-yl)prop-2-en-1-one]"
< 10,< 10,"C=CC(=O)N1CCC[C@@H](Nc2nc(Nc3ccc4c(c3)CNC4)ncc2C(F)(F)F)C1 [Compound I-65, (R)-1-(3-((2-(Isoindolin-5-ylamino)-5-(trifluoromethyl)pyrimidin-4-yl)amino)piperidin-1-yl)prop-2-en-1-one]"
< 10,10 to 100,"C=CC(=O)N1CCC[C@@H](Nc2nc(Nc3ccc4c(c3)CCN(C(C)C)C4)ncc2F)C1 [Compound I-29, (R)-1-(3-((5-Fluoro-2-((2-isopropyl-1,2,3,4-tetrahydroisoquinolin-6-yl)amino)-pyrimidin-4-yl)amino)piperidin-1-yl)prop-2-en-1-one]"
< 10,< 10,"C=CC(=O)N1CC2(CC(Nc3nc(Nc4ccc5c(c4)CN(C)C5)ncc3F)C2)C1 [Compound I-26, 1-(6-((5-Fluoro-2-((2-methylisoindolin-5-yl)amino)pyrimidin-4-yl)amino)-2-azaspiro[3.3]heptan-2-yl)prop-2-en-1-one]"
< 10,10 to 100,"C=CC(=O)N1CCC[C@@H](Nc2nc(Nc3ccc4c(c3)CCN(C(C)=O)C4)ncc2F)C1 [Compound I-30, (R)-1-(3-((2-((2-Acetyl-1,2,3,4-tetrahydroisoquinolin-6-yl)amino)-5-fluoro-pyrimidin-4-yl)amino)piperidin-1-yl)prop-2-en-1-one]"

# Further lines, the compound ahead of its results:
Compound,IC50 [1] [nM],EC50 [2] [nM]
"C=CC(=O)N1CCC[C@@H](Nc2nc(Nc3ccc4c(c3)CNC4)ncc2F)C1 [Compound I-1, (R)-1-(3-((5-fluoro-2-(isoindolin-5-ylamino)pyrimidin-4-yl)amino)piperidin-1-yl)prop-2-en-1-one]",< 10,10 to 100
"C=CC(=O)N1CCC[C@@H](Nc2nc(Nc3ccc4c(c3)CN(CC(C)(C)C)C4)ncc2F)C1 [Compound I-14, (R)-1-(3-((5-Fluoro-2-((2-neopentylisoindolin-5-yl)amino)pyrimidin-4-yl)amino)piperidin-1-yl)prop-2-en-1-one]",< 10,10 to 100
"C=CC(=O)N1CCC[C@@H](Nc2nc(Nc3ccc4c(c3)CN(C3COC3)C4)ncc2F)C1 [Compound I-13, (R)-1-(3-((5-Fluoro-2-((2-(oxetan-3-yl)isoindolin-5-yl)amino)pyrimidin-4-yl)amino)piperidin-1-yl)prop-2-en-1-one]",< 10,10 to 100
"C=CC(=O)N1CCC[C@@H](Nc2nc(Nc3ccc4c(c3)CN(C)C4)ncc2F)C1 [Compound I-2, (R)-1-(3-((5-Fluoro-2-((2-methylisoindolin-5-yl)amino)pyrimidin-4-yl)amino)piperidin-1-yl)prop-2-en-1-one]",< 10,< 10
"C=CC(=O)N1CCC[C@@H](Nc2nc(Nc3ccc4c(c3)CN(CC3CCNCC3)C4)ncc2F)C1 [Compound I-6, (R)-1-(3-((5-Fluoro-2-((2-(piperidin-4-ylmethyl)isoindolin-5-yl)amino)pyrimidin-4-yl)amino)piperidin-1-yl)prop-2-en-1-one]",< 10,101 to 1000
"C=CC(=O)N1CCC[C@@H](Nc2nc(Nc3ccc4c(c3)CN(CCOC)C4)ncc2F)C1 [Compound I-4, (R)-1-(3-((5-Fluoro-2-((2-(2-methoxyethyl)isoindolin-5-yl)amino)pyrimidin-4-yl)amino)piperidin-1-yl)prop-2-en-1-one]",< 10,10 to 100
"C=CC(=O)N1CCC[C@@H](Nc2nc(Nc3ccc4c(c3)CN(CC(F)(F)F)C4)ncc2F)C1 [Compound I-22, (R)-1-(3-((5-fluoro-2-((2-(2,2,2-trifluoroethyl)isoindolin-5-yl)amino)pyrimidin-4-yl)amino)piperidin-1-yl)prop-2-en-1-one]",< 10,10 to 100
"C=CC(=O)N1CCC[C@@H](Nc2nc(Nc3ccc4c(c3)CN(C3CCOCC3)C4)ncc2F)C1 [Compound I-12, (R)-1-(3-((5-Fluoro-2-((2-(tetrahydro-2H-pyran-4-yl)isoindolin-5-yl)amino)-pyrimidin-4-yl)amino)piperidin-1-yl)prop-2-en-1-one]",< 10,10 to 100
"C=CC(=O)N1CCC[C@@H](Nc2nc(Nc3ccc4c(c3)CN(C3CCNCC3)C4)ncc2F)C1 [Compound I-5, (R)-1-(3-((5-fluoro-2-((2-(piperidin-4-yl)isoindolin-5-yl)amino)pyrimidin-4-yl)amino)piperidin-1-yl)prop-2-en-1-one]",< 10,101 to 1000
